{"source": "paper PMC9909315", "about": "“SY-707, an ALK/FAK/IGF1R inhibitor, suppresses growth and metastasis of breast cancer cells” (Acta Biochimica et Biophysica Sinica, 2022)", "key": {"[1]": {"system": "MIA PACA-2", "assay": "Cell proliferation assay (CellTiter-Glo/CellTiter-Blue)", "assay_type": "cell-based", "conditions": "Homo sapiens, MIA PaCa-2, 72 h, read-out: IC50 anti-proliferation", "method": "(§1) MCF-7, T47D, MDA-MB-231, MIA Paca-2, PANC-1, SW620, HT-29, U87MG, and A549 cell lines were purchased from the Cell Bank of Chinese Academy of Science (Shanghai, China). Cells were cultured in DMEM or RPMI-1640 (Gibco, BRL, USA) supplemented with 10% FBS (HyClone, Logan, USA) and 50 IU penicillin/streptomycin in a humidified atmosphere with 5% CO 2 at 37°C. The effects of SY-707 on cell proliferation were measured using CellTiter-Glo ® or CellTiter-Blue ® Cell Viability Assay kits (Promega, Beijing, China). In brief, cells were seeded in 96-well plates at low destiny with 195 μL of medium per well. The stock solutions of compounds were 3-fold serially diluted with DMSO from 10 mM to 0.3 nM, and 4 μL of solution at each concentration was mixed with 96 μL of serum free medium, then 5 μL of the resulted solution was added to each well. After treatment for 72 h, 25 μL of CellTiter-Glo ® reagent (for adherent cells) or 35 μL CellTiter-Blue ® reagent (for suspension cells) was added to each well, and the resulted mixture was further incubated at room temperature for 10 min or 4 h. The luminescence signals were measured using EnVision ® multilabel plate reader (PerkinElmer), and the fluorescent signals were examined using FlexStation 3 (Molecular Devices, Sunnyvale, USA), and the IC 50 values were calculated using Prism ® software (Version 5.0) and presented as the average of three independent experiments performed in duplicate."}, "[2]": {"system": "MCF-7", "assay": "Cell proliferation assay (CellTiter-Glo/CellTiter-Blue)", "assay_type": "cell-based", "conditions": "Homo sapiens, MCF7, 72 h, read-out: IC50 anti-proliferation", "method": "as §1"}, "[3]": {"system": "T47D", "assay": "Cell proliferation assay (CellTiter-Glo/CellTiter-Blue)", "assay_type": "cell-based", "conditions": "Homo sapiens, 72 h, read-out: IC50 anti-proliferation", "method": "as §1"}, "[4]": {"system": "MDA-MB-231", "assay": "Cell proliferation assay (CellTiter-Glo/CellTiter-Blue)", "assay_type": "cell-based", "conditions": "Homo sapiens, MDA-MB-231, 72 h, read-out: IC50 anti-proliferation", "method": "as §1"}, "[5]": {"system": "HT29", "assay": "Cell proliferation assay (CellTiter-Glo/CellTiter-Blue)", "assay_type": "cell-based", "conditions": "Homo sapiens, HT-29, 72 h, read-out: IC50 anti-proliferation", "method": "as §1"}, "[6]": {"system": "SW620", "assay": "Cell proliferation assay (CellTiter-Glo/CellTiter-Blue)", "assay_type": "cell-based", "conditions": "Homo sapiens, SW-620, 72 h, read-out: IC50 anti-proliferation", "method": "as §1"}, "[7]": {"system": "U87MG", "assay": "Cell proliferation assay (CellTiter-Glo/CellTiter-Blue)", "assay_type": "cell-based", "conditions": "Homo sapiens, U-87 MG, 72 h, read-out: IC50 anti-proliferation", "method": "as §1"}, "[8]": {"system": "PANC-1", "assay": "Cell proliferation assay (CellTiter-Glo/CellTiter-Blue)", "assay_type": "cell-based", "conditions": "Homo sapiens, PANC-1, 72 h, read-out: IC50 anti-proliferation", "method": "as §1"}, "[9]": {"system": "A549", "assay": "Cell proliferation assay (CellTiter-Glo/CellTiter-Blue)", "assay_type": "cell-based", "conditions": "Homo sapiens, A549, 72 h, read-out: IC50 anti-proliferation", "method": "as §1"}, "[10]": {"system": "phosphorylation of IGF1R", "assay": "Western blot of IGF1R phosphorylation in T47D cells after IGF1", "assay_type": "cell-based", "conditions": "1 h treatment, then 100 ng/mL IGF1 for 10 min, dose-dependent", "method": "Equal amounts of cell lysates were loaded onto 10% SDS-PAGE gel and separated by electrophoresis. Separated proteins were then electro-transferred onto polyvinylidene fluoride (PVDF) membranes (Millipore, Bedford, USA). After being blocked with Tris-buffered saline containing 0.1% Tween-20 (TBST) and 5% bovine serum albumin (BSA), the membranes were incubated with primary antibodies at room temperature for 2 hours or at 4°C, then washed with TBST, followed by treatment with horseradish peroxidase (HRP)-conjugated goat anti-rabbit IgG secondary antibody at room temperature for another 1 h. The targeted protein bands were visualized using an enhanced chemiluminescence (ECL) plus system (Thermo Fisher Scientific). […]\nFigure4 Inhibitory effects of SY-707 on the phosphorylation of FAK(A,B) Concentration-dependent inhibition of SY-707 on phosphorylation of FAK in T47D (A) and MCF-7 (B) cells. […] Cell lysates were analyzed by western blot analysis using specific antibodies against p-FAK, p-Pyk2, p-AKT and p-ERK respectively. […] Cell lysates were analyzed by western blot analysis using specific antibodies against p-IGF1R, p-STAT3, p-AKT and p-ERK respectively."}, "[11]": {"target": "ALK (Homo sapiens, UniProt Q9UM73)", "sequence (Q9UM73 19-1620)": "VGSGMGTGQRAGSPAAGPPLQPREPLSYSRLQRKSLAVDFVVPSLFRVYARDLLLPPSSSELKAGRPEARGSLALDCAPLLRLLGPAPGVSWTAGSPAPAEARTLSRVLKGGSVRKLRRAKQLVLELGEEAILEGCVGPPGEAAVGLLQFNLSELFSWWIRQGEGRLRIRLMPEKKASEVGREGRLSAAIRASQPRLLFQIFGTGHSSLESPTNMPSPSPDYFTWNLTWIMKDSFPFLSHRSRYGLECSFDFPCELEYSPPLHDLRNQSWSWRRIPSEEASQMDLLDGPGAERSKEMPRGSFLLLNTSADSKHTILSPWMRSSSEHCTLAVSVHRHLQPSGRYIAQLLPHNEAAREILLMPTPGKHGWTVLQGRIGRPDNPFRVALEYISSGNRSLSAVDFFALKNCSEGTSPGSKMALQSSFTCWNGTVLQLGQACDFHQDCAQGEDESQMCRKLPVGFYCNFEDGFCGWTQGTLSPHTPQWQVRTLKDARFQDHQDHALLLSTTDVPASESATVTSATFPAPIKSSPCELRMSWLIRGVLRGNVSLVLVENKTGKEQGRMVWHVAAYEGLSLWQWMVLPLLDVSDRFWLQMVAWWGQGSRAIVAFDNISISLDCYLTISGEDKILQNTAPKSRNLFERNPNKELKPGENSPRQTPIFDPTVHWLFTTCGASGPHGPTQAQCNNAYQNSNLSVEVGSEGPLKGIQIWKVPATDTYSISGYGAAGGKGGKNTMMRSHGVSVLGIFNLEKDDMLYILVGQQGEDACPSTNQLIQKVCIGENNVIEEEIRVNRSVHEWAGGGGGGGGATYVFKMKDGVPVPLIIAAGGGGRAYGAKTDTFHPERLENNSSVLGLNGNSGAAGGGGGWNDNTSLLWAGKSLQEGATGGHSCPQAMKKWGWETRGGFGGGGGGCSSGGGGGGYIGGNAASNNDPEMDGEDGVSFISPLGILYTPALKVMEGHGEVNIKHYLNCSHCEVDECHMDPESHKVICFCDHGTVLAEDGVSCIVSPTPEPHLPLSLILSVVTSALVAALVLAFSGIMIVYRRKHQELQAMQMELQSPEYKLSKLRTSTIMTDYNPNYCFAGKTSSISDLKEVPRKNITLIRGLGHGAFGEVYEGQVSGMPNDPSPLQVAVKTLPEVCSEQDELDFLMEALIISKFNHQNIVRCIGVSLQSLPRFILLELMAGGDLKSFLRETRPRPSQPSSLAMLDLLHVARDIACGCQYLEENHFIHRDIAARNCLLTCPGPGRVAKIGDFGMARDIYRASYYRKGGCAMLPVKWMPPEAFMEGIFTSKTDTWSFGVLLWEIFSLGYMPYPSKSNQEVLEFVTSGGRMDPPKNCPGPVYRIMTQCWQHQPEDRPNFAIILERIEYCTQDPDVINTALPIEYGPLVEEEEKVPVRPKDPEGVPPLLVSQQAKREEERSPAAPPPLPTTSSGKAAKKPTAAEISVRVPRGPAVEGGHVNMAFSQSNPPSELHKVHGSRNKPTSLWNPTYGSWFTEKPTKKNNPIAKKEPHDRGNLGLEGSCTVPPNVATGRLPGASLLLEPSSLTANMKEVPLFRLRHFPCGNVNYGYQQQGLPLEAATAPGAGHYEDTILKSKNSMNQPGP", "assay": "Enzymatic kinetic analysis at various ATP concentrations", "assay_type": "biochemical", "method": "(§2) SY-707 ( Figure 1A) was originally developed as an ALK inhibitor. […] To evaluate the in vitro enzymatic potency and selectivity of SY-707, a kinase panel screening on 96 kinases was performed to determine the inhibitory activities of SY-707 at a concentration of 1 mM. […] Then, enzymatic kinetic analysis of ALK and FAK was performed to explore the mechanisms of inhibition effect of SY-707. Activities of ALK or FAK were estimated at various concentrations of ATP in the presence or absence of SY-707.\n(§3) (C) ALK enzyme activities were evaluated at various concentrations of ATP (0–50 μM) in the presence of different concentrations of SY-707. (D) FAK enzyme activities were evaluated at various concentrations of ATP (0–333 μM) in the presence of different concentrations of SY-707."}, "[12]": {"target": "FAK (Homo sapiens, UniProt Q05397)", "sequence (Q05397 whole entry)": "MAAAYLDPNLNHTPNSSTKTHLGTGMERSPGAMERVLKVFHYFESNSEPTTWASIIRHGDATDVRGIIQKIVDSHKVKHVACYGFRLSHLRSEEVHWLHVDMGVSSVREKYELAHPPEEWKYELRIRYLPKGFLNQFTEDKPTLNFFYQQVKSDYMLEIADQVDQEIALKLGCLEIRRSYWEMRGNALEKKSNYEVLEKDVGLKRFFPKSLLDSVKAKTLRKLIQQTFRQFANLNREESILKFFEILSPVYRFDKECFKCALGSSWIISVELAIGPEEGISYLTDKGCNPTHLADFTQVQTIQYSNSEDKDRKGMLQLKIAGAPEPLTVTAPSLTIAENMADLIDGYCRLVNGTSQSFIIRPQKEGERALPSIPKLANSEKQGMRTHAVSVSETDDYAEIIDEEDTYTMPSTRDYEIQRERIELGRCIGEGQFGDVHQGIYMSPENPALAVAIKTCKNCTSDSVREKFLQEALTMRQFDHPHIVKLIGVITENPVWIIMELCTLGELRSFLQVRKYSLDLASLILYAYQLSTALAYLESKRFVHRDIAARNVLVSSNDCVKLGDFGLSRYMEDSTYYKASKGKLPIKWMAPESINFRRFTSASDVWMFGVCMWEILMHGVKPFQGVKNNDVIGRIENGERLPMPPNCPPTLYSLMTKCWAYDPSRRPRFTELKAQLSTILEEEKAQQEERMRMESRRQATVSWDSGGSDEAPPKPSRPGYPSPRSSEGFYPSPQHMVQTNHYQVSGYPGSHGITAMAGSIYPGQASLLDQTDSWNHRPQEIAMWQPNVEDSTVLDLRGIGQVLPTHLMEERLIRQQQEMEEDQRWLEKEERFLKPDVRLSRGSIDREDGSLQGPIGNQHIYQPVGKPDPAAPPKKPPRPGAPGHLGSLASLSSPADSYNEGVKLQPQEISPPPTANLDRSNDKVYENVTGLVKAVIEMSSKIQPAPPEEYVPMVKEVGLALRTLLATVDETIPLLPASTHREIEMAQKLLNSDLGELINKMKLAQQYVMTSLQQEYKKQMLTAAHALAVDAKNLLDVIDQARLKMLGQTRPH", "assay": "Enzymatic kinetic analysis at various ATP concentrations", "assay_type": "biochemical", "method": "as §2, §3"}, "[13]": {"system": "solid cancer cells", "assay": "Cell proliferation assay, summary over the cell line series", "assay_type": "cell-based", "conditions": "72 h, read-out: IC50 values (summary over the solid cancer cell lines)", "method": "as §1, with “After treatment for 72 h, 25 μL of CellTiter-Glo ® reagent (for adherent cells) or 35 μL CellTiter-Blue ® reagent (for suspension cells) was added to each well, and the resulted mixture was further incubated at room temperature for 10 min or 4 h.” left out"}, "[14]": {"system": "4T1 breast cancer metastasis to the lung", "assay": "Metastasis analysis in vivo (lung nodules, 4T1 model)", "design": "species or system nude mice", "conditions": "4T1, treatment alone: SY-707 100 mg/kg/day PO; paclitaxel 10 or 20 mg/kg/week IV; 20 days; not statistically different", "quoted_text": "Metastasis was detected in mouse lungs after the mice were sacrificed at the last dosing day. The lungs of each mouse were excised immediately and fixed with 4% paraformaldehyde for 24 h, then the lungs were photographed (three photographs per section per mouse) and the metastatic nodules in the lungs were manually counted and the data was analyzed for compound evaluation.\nMice were inoculated with 4T1 cells in PBS at right and left flanks expect the normal control group ( Figure 6A), SY-707 with or without paclitaxel was administered for 20 days when tumor volumes reached 150–300 mm ^3. The mice were sacrificed on the last day of drug administration, then the lungs were collected and metastatic nodules were counted manually for the evaluation of metastasis of 4T1 breast cancer.\nThe normal group (A) and the vehicle group which treatment with 20% SBE (B) were control. Mouse lungs were taken at the last day of treatment and fixed with 4% paraformaldehyde for 24 h, then the lungs were photographed and the metastatic nodules were counted manually for further analysis. *P<0.05, **P<0.01."}}}
{"smiles": "COc1cc(N2CCC(N3CCN(C)CC3)CC2)ccc1Nc1nc2c(c(Nc3ccccc3S(=O)(=O)NC(C)C)n1)CCN2", "note": "[SY-707, N-isopropyl-2-((2-((2-methoxy-4-(4-(4-methylpiperazin-1-yl)piperidin-1-yl)phenyl)amino)-6,7-dihydro-5H-pyrrolo[2,3-d]pyrimidin-4-yl)amino)benzenesulfonamide]", "values": [{"measurement": "IC50", "setting": "[1]", "value": 1300, "unit": "nM"}, {"measurement": "IC50", "setting": "[2]", "value": 590, "unit": "nM"}, {"measurement": "IC50", "setting": "[3]", "value": 1800, "unit": "nM"}, {"measurement": "IC50", "setting": "[4]", "value": 1900, "unit": "nM"}, {"measurement": "IC50", "setting": "[5]", "value": 600, "unit": "nM"}, {"measurement": "IC50", "setting": "[6]", "value": 810, "unit": "nM"}, {"measurement": "IC50", "setting": "[7]", "value": "> 10000", "unit": "nM"}, {"measurement": "IC50", "setting": "[8]", "value": 1200, "unit": "nM"}, {"measurement": "IC50", "setting": "[9]", "value": 5700, "unit": "nM"}, {"measurement": "phosphorylation of IGF1R", "setting": "[10]", "value": "block the phosphorylation"}, {"measurement": "mode of inhibition of ALK kinase", "setting": "[11]; Lineweaver-Burk plots", "value": "ATP-competitive inhibitor"}, {"measurement": "Ki', ALK enzyme-ATP complex", "setting": "[11]; enzyme-ATP complex", "value": 19.2, "unit": "nM"}, {"measurement": "Ki", "setting": "[11]; free enzyme, read-out: dissociation constant (Ki), free ALK enzyme", "value": 0.9, "unit": "nM"}, {"measurement": "mode of inhibition of FAK kinase", "setting": "[12]; double-reciprocal plots", "value": "ATP-competitive inhibitory behavior"}, {"measurement": "Ki', FAK enzyme-ATP complex", "setting": "[12]; enzyme-ATP complex", "value": 16.1, "unit": "nM"}, {"measurement": "Ki", "setting": "[12]; free enzyme, read-out: dissociation constant (Ki), free FAK enzyme", "value": 0.56, "unit": "nM"}, {"measurement": "IC50", "setting": "[13]", "value": "500 to 10000", "unit": "nM"}, {"measurement": "number of metastatic nodules in the lungs vs vehicle group", "setting": "[14]", "value": "reduced the number of metastatic nodules"}]}
